Test results from US9290544B2, “Methods for making and using molecular switches involving circular permutation” (priority 2004, dated 2016).
Values joined by “and” are separate entries in the source; they are usually repeats but may differ in a detail not shown here. Equal values may be shown once.

Legend:
[1] = Hydrolysis of ampicillin by RG-200-13 with and without 5 mM maltose; type: biochemical; conditions: pH 7.0, 22° C.
Procedure: (§1) A 6×His tag was added to the C-terminus of RG-200-13 (also termed “RG13” in Examples below) and the fusion was purified as previously described (Guntas and Ostermeier 2004). The protein was purified to approximately 60% purity. The kinetic constants and binding constants were determined from Eadie-Hofstee plots and Eadie plot equivalents, respectively, using a spectrophotometric assay for nitrocefin hydrolysis. Initial rates for nitrocefin hydrolysis were determined from absorbance at 486 nm monitored as a function of time. The enzyme was incubated at the assay temperature in the absence or presence of saccharide for four minutes prior to performing the assay. All assays contained 100 mM sodium phosphate buffer, pH 7.0. The dissociation constant for maltose was determined using change in velocity of nitrocefin hydrolysis as a signal.
(§2) Maltose binding had the largest effect on cephalothin (of the substrates tested), with the velocity of cephalothin hydrolysis being 32-fold higher in the presence of maltose than in its absence.

[2] = Carbenicillin hydrolysis by purified RG13, 25° C.; type: biochemical; conditions: 50 μM carbenicillin
Procedure: (§3) All kinetic assays were performed at 25° C. in the presence of 100 mM sodium phosphate buffer, pH 7.0. Ten μl of enzyme stock was added to 1.59 ml buffer (containing the saccharide, if desired). After incubation for 30 seconds, 0.4 ml of 5× substrate was added and the absorbance at the appropriate wavelength was recorded using the Cary50 UV-VIS spectrophotometer. The wavelength monitored was 486 nm, 240 nm, and 232 nm for nitrocefin, carbenicillin, and ampicillin respectively. From the initial rate of reaction the kinetic constants were determined using Eadie-Hofstee plots. […] The rate data was consistent with a small hysteretic effect (Brennan et al. 1994) and not substrate inhibition as preincubation of the enzyme with the substrate for one minute prevented the lag from occurring upon addition of more substrate. Therefore, the steady state parameters for nitrocefin hydrolysis in the absence of maltose were determined by measuring the rate at 1-2 minutes (well after the lag) and correcting the substrate concentration by subtracting the amount of substrate hydrolyzed. In all cases the extent of reaction at the point the rate was measured was less than 25%. In the presence of maltose, no lag was observed.

[3] = Spectrophotometric nitrocefin hydrolysis assay of purified RG-200-13, 22° C.; type: biochemical; conditions: for Change in velocity of nitrocefin hydrolysis in presence of sugar: 50 μM nitrocefin; for Change in velocity of nitrocefin hydrolysis in presence of sugar / Km / kcat: pH 7.0, 22° C.
Procedure: as §1

[4] = Steady state kinetics of nitrocefin hydrolysis, purified RG13 proteins, 25° C.; type: biochemical
Procedure: as §3

[5] = Nitrocefin hydrolysis in soluble fraction of cell lysates with and without 5 mM maltose (screen and confirmation of positives); type: biochemical; conditions: 50 μM nitrocefin
Procedure: Next, 50 μl of PopCulture (Novagen) and 2.5 unit of benzonase nuclease was added to each well and incubated for 15 minutes at room temperature to lyse the cells. The cells debris and any unlysed cells were pelleted by centrifugation and supernatant was recovered. In 96-well format, 60 μl of lysate was assayed for hydrolysis of nitrocefin (50 μM) by monitoring the increase in absorbance at 490 nm in 100 mM sodium phosphate buffer, pH 7.0, both with and without 5 mM maltose. Any lysate in which there was a difference in rate of more than 2-fold (between with and without maltose) was selected for retesting and further investigation.
Library members identified as having more than 200% switching activity in the 96-well plate screen were grown 24-48 hours in 100 ml LB media in 500 ml shaker flasks at 22° C. without IPTG. The cells were pelleted and resuspended in 8 ml assay buffer (100 mM sodium phosphate buffer, pH 7.0) and lysed by French press. The soluble fraction of this lysate was assayed for hydrolysis of nitrocefin (50 μM) at 22° C. as previously described (Guntas and Ostermeier 2004) both with and without 5 mM maltose. Initial rates were determined from absorbance at 486 nm monitored as a function of time. The enzyme was incubated at the assay temperature in the absence or presence of 5 mM maltose for four minutes prior to performing the assay. All assays contained 100 mM sodium phosphate buffer, pH 7.0. Library members for which there was a difference in the initial rate of more than about 2-fold were sequenced (Table 4). Switches RG-5-169 and RG-200-13 were also assayed in the presence of 5 mM sucrose or 5 mM glucose.

[6] = Affinity of switches for maltose (method not given); type: binding
From the text: Exemplary switches were created by the method having different affinities for maltose.

[7] = Maltose affinity by intrinsic protein fluorescence; type: binding
Procedure: Maltose affinity for RG13 (in presence and absence of 10 mM carbenicillin) and RG13(1329W) (in the absence of substrate) was determined using intrinsic protein fluorescence measured on a Photon Technology QuantaMaster QM-4 spectrofluorometer. Fluorescence spectra were obtained at 25° C. at different concentrations of maltose in 50 mM sodium phosphate buffer, pH 7.0, containing 100 mM sodium chloride. The protein concentration was 50-100 nM. Excitation was at 280 nm. The quenching in fluorescence intensity at 341 nm caused by maltose was used in Eadie-Hofstee equivalent plots to determine Kd using the following equation:
[formula] where ΔF is the change in fluorescence intensity, ΔFmax is the difference in fluorescence between no maltose and saturating amounts of maltose and [L] is the maltose concentration. The fluorescence quenching of RG13(1329W/A96W) upon addition of maltose was insufficient to accurately determine a Kd by this method. The dissociation constant for maltose and RG13(I329W) in the presence of saturating carbenicillin (2 mM) was determined by measuring the initial rate of carbenicillin hydrolysis as a function of maltose concentration. The apparent dissociation constant in the presence of subsaturating concentrations of nitrocefin (25 μM) for all three proteins was determined by measuring the initial rate of nitrocefin hydrolysis as a function of maltose concentration.

[8] = Hydrolysis of carbenicillin by RG-200-13 with and without 5 mM maltose; type: biochemical; conditions: substrate carbenicillin 1 mM; pH 7.0, 22° C.
Procedure: as §1, §2

[9] = effector maltose 5 mM (saturating)
[10] = effector maltose 5 mM (saturating), nitrocefin, 25° C.
[11] = effector β-cyclodextrin 5 mM, nitrocefin, 25° C.
[12] = no effector, nitrocefin, pH 7.0, 25° C.

Substance: RG13: MBP-BLA fusion switch MBP[1-316]-BLA[227-286]-GSGGG-BLA[24-226]-S-MBP[319-370]; SEQ ID NO: 61
- Approximate fold increase in velocity of ampicillin hydrolysis in the presence of 5 mM maltose ([1]; substrate ampicillin 100 μM): ~26 fold
- Approximate fold increase in velocity of ampicillin hydrolysis in the presence of 5 mM maltose ([1]; substrate ampicillin 500 μM): ~10 fold
- Rate increase with maltose [2]: 12 fold
- Change in velocity of nitrocefin hydrolysis in presence of sugar ([3]; Galactose 5 mM): −3%
- Change in velocity of nitrocefin hydrolysis in presence of sugar ([3]; Lactose 5 mM): −4%
- Change in velocity of nitrocefin hydrolysis in presence of sugar ([3]; Maltose 5 mM): +1800%
- Change in velocity of nitrocefin hydrolysis in presence of sugar ([3]; Maltotetraitol 5 mM): +400%
- Change in velocity of nitrocefin hydrolysis in presence of sugar ([3]; Maltotriose 5 mM): +1700%
- Change in velocity of nitrocefin hydrolysis in presence of sugar ([3]; Sucrose 5 mM): −5%
- Km ([3]; nitrocefin, 5 mM maltose): ~85 µM
- kcat ([3]; nitrocefin, 5 mM maltose, listed as RG-200-13): ~520 s⁻¹
- Km Ratio (with maltose)/(without maltose) ([3]; nitrocefin, 22° C.): ~0.26
- kcat Ratio (with maltose)/(without maltose) ([3]; nitrocefin, 22° C.): ~6.5
- Km ([3]; nitrocefin, no maltose): ~325 µM
- kcat ([3]; nitrocefin, no maltose): ~80 s⁻¹
- Change in velocity of nitrocefin hydrolysis in presence of sugar ([3]; β-cyclodextrin 3 mM): +150%
- Increase in the reaction rate on addition of subsaturating maltose ([4]; 20 μM nitrocefin, 2.5 nM RG13, 2 ml, 20 μl of 1 M maltose added (FIG. 7B)): 10 fold
- Km Ratio (with effector)/(without effector) ([4]; effector maltose 5 mM): 0.12 ± 0.03
- kcat Ratio (with effector)/(without effector) [4, 9]: 3 and 3.1 ± 0.6
- kcat/Km Ratio (with effector)/(without effector) [4, 9]: 25 and 25 ± 7
- Km [4, 10]: 68 ± 4 µM
- kcat [4, 10]: 620 ± 60 s⁻¹ and 620 ± 30 s⁻¹
- Km Ratio (with effector)/(without effector) ([4]; effector β-cyclodextrin 5 mM): 1.6 ± 0.4
- kcat Ratio (with effector)/(without effector) ([4]; effector β-cyclodextrin 5 mM): 2.9 ± 0.6
- kcat/Km Ratio (with effector)/(without effector) ([4]; effector β-cyclodextrin 5 mM): 1.8 ± 0.6
- Km [4, 11]: 870 ± 90 µM
- kcat [4, 11]: 590 ± 60 s⁻¹
- Decrease of Km with saturating amounts of maltose ([4]; nitrocefin, 25° C.): 8 fold
- Km [4, 12]: 550 ± 120 µM
- kcat [4, 12]: 200 ± 40 s⁻¹
- Effect of non-ligands on rate of nitrocefin hydrolysis ([4]; sucrose, lactose and galactose 5 mM, 20 μM nitrocefin (FIG. 7A)): no effect
- Increase in the rate of nitrocefin hydrolysis upon addition of ligand ([4]; β-cyclodextrin 5 mM, 20 μM nitrocefin (FIG. 7A)): 2 fold
- Effect of 5 mM sucrose or 5 mM glucose on velocity of nitrocefin hydrolysis ([5]; 22° C., lysate soluble fraction): Neither sugar affected the velocity of nitrocefin hydrolysis
- Switching effect: percent change in velocity of nitrocefin hydrolysis in the presence of 5 mM maltose ([5]; 5 mM maltose, 100 mM sodium phosphate buffer, pH 7.0): +1650%
- Kd [6]: 1 to 5 µM
- Kd ([7]; 10 mM carbenicillin, 25° C., read-out: Kd maltose, Saturating Carbenicillin, IPF): 1.3 ± 0.5 µM
- Kd ([7]; intrinsic protein fluorescence, 100 mM NaCl, 50 mM NaPO4, pH 7.0, 25° C., read-out: Kd maltose, No Substrate): 5.5 µM and 5 to 6 µM
- Kd ([7]; text of Example 3, read-out: Dissociation constant for maltose in the presence of saturating amounts of carbenicillin): ~1 µM
- Approximate fold increase in velocity of carbenicillin hydrolysis in the presence of 5 mM maltose [8]: ~4 fold
